Consider seven molecules from PubChem BioAssay AID1259407 (Chemical Carcinogenesis Research Information System (CCRIS), 2018).

Activity calls are given as the source filed them. How the calls were made is not given here.

The series concerns CCRIS mutagenicity, Ames/micronucleus/aberration tests. The series can be described thus: CCRIS mutagenicity studies.
Where [1] appears, read: Test System: AMES SALMONELLA TYPHIMURIUM, Strain/Indicator: TA98, Metabolic Activation: NONE, Method: STANDARD PLATE.
The mark [2] stands for this setting: Test System: AMES SALMONELLA TYPHIMURIUM, Strain/Indicator: TA100, Metabolic Activation: NONE, Method: STANDARD PLATE.
[3] abbreviates: Test System: AMES SALMONELLA TYPHIMURIUM, Strain/Indicator: TA1535, Metabolic Activation: NONE, Method: PREINCUBATION
Where [4] appears, read: Test System: AMES SALMONELLA TYPHIMURIUM, Strain/Indicator: TA1537, Metabolic Activation: NONE, Method: PREINCUBATION

Take `N#Cc1cc(I)c(O)c([N+](=O)[O-])c1`: the mutagenic call (End Point: In vivo chromosomal aberrations, Test System: Bone marrow cells, Species: Mouse, Strain/Sex: Swiss/Male, Route: Intraperitoneal) is “active; positive (structural changes)”; the mutagenic call under setting [1] is “inactive; negative”; the mutagenic call (Test System: AMES SALMONELLA TYPHIMURIUM, Strain/Indicator: TA98, Metabolic Activation: RAT, LIVER, S-9, KANECHLOR 400, Method: STANDARD PLATE) was “inactive; negative”; the mutagenic call under setting [2] was “inactive; negative”; the mutagenic call (Test System: AMES SALMONELLA TYPHIMURIUM, Strain/Indicator: TA100, Metabolic Activation: RAT, LIVER, S-9, KANECHLOR 400, Method: STANDARD PLATE) is “inactive; negative”; the mutagenic call (Test System: AMES SALMONELLA TYPHIMURIUM, Strain/Indicator: TA1535, Metabolic Activation: NONE, Method: STANDARD PLATE) was “inactive; negative”. The mutagenic call runs as follows: (Test System: AMES SALMONELLA TYPHIMURIUM, Strain/Indicator: TA1535, Metabolic Activation: RAT, LIVER, S-9, KANECHLOR 400, Method: STANDARD PLATE) “inactive; negative”; (Test System: AMES SALMONELLA TYPHIMURIUM, Strain/Indicator: TA1537, Metabolic Activation: NONE, Method: STANDARD PLATE) “inactive; negative”; (Test System: AMES SALMONELLA TYPHIMURIUM, Strain/Indicator: TA1537, Metabolic Activation: RAT, LIVER, S-9, KANECHLOR 400, Method: STANDARD PLATE) “inactive; negative”; (Test System: AMES SALMONELLA TYPHIMURIUM, Strain/Indicator: TA1538, Metabolic Activation: RAT, LIVER, S-9, KANECHLOR 400, Method: STANDARD PLATE) “inactive; negative”.
`C[n+]1c2ccccc2cc2cc(N)ccc21`: the mutagenic call is “inactive; negative” under setting [3]; “inactive; negative” (Test System: AMES SALMONELLA TYPHIMURIUM, Strain/Indicator: TA1535, Metabolic Activation: RAT, LIVER, S-9, TETRACHLOROBIPHENYL, Method: PREINCUBATION); “active; positive” under setting [4]; “active; positive” (Test System: AMES SALMONELLA TYPHIMURIUM, Strain/Indicator: TA1537, Metabolic Activation: RAT, LIVER, S-9, TETRACHLOROBIPHENYL, Method: PREINCUBATION); “active; positive” (Test System: AMES SALMONELLA TYPHIMURIUM, Strain/Indicator: TA1538, Metabolic Activation: NONE, Method: PREINCUBATION); “active; positive” (Test System: AMES SALMONELLA TYPHIMURIUM, Strain/Indicator: TA1538, Metabolic Activation: RAT, LIVER, S-9, TETRACHLOROBIPHENYL, Method: PREINCUBATION). The mutagenic call is “active; positive” (Test System: AMES SALMONELLA TYPHIMURIUM, Strain/Indicator: TA1977, Metabolic Activation: NONE, Method: PREINCUBATION); “active; positive” (Test System: AMES SALMONELLA TYPHIMURIUM, Strain/Indicator: TA1977, Metabolic Activation: RAT, LIVER, S-9, TETRACHLOROBIPHENYL, Method: PREINCUBATION); “active; positive” (Test System: AMES SALMONELLA TYPHIMURIUM, Strain/Indicator: TA1978, Metabolic Activation: NONE, Method: PREINCUBATION); “active; positive” (Test System: AMES SALMONELLA TYPHIMURIUM, Strain/Indicator: TA1978, Metabolic Activation: RAT, LIVER, S-9, TETRACHLOROBIPHENYL, Method: PREINCUBATION).
`Cc1ncc([N+](=O)[O-])n1CC(=O)O`: the mutagenic call by setting is: under setting [2], “active; positive”; (Test System: AMES SALMONELLA TYPHIMURIUM, Strain/Indicator: TA100, Metabolic Activation: RAT, LIVER, S-9, AROCLOR 1254, Method: STANDARD PLATE) “inactive; negative”.
On to `O=[N+]([O-])c1ccc(-c2csc(Cl)n2)o1`, for which the mutagenic call is, setting by setting: (Test System: E. COLI, Strain/Indicator: WP2, Metabolic Activation: NONE, Method: SPOT) “active; positive”; (Test System: E. COLI, Strain/Indicator: WP2 UVRA, Metabolic Activation: NONE, Method: SPOT) “active; positive”.
Turning to `CCOC(=O)C(C)NC(=O)C=[N+]=[N-]` (centres undefined), for the setting “Test System: UDS RODENT CELLS, Strain/Indicator: THY INCORP (NON-S-PHASE), Metabolic Activation: NONE, Method: AUTORADIOGRAPHY”, the mutagenic call was “active; positive”.
`Cc1ccccc1C`: the mutagenic call was “inactive; negative” (Test System: AMES SALMONELLA TYPHIMURIUM, Strain/Indicator: TA98, Metabolic Activation: HAMSTER, LIVER, S-9, AROCLOR 1254, Method: PREINCUBATION); “inactive; negative” (Test System: AMES SALMONELLA TYPHIMURIUM, Strain/Indicator: TA98, Metabolic Activation: NONE, Method: PREINCUBATION); “inactive; negative” under setting [1]; “inactive; negative” (Test System: AMES SALMONELLA TYPHIMURIUM, Strain/Indicator: TA98, Metabolic Activation: RAT, LIVER, S-9, AROCLOR 1254, Method: PREINCUBATION); “inactive; negative” (Test System: AMES SALMONELLA TYPHIMURIUM, Strain/Indicator: TA98, Metabolic Activation: RAT, LIVER, S-9, AROCLOR, Method: STANDARD PLATE); “inactive; negative” (Test System: AMES SALMONELLA TYPHIMURIUM, Strain/Indicator: TA100, Metabolic Activation: HAMSTER, LIVER, S-9, AROCLOR 1254, Method: PREINCUBATION). In addition, the mutagenic call was “inactive; negative” (Test System: AMES SALMONELLA TYPHIMURIUM, Strain/Indicator: TA100, Metabolic Activation: NONE, Method: PREINCUBATION); “inactive; negative” under setting [2]; “inactive; negative” (Test System: AMES SALMONELLA TYPHIMURIUM, Strain/Indicator: TA100, Metabolic Activation: RAT, LIVER, S-9, AROCLOR 1254, Method: PREINCUBATION); “inactive; negative” (Test System: AMES SALMONELLA TYPHIMURIUM, Strain/Indicator: TA100, Metabolic Activation: RAT, LIVER, S-9, AROCLOR, Method: STANDARD PLATE); “inactive; negative” (Test System: AMES SALMONELLA TYPHIMURIUM, Strain/Indicator: TA1535, Metabolic Activation: HAMSTER, LIVER, S-9, AROCLOR 1254, Method: PREINCUBATION); “inactive; negative” under setting [3]. In addition, the mutagenic call was “inactive; negative” (Test System: AMES SALMONELLA TYPHIMURIUM, Strain/Indicator: TA1535, Metabolic Activation: RAT, LIVER, S-9, AROCLOR 1254, Method: PREINCUBATION); “inactive; negative” (Test System: AMES SALMONELLA TYPHIMURIUM, Strain/Indicator: TA1537, Metabolic Activation: HAMSTER, LIVER, S-9, AROCLOR 1254, Method: PREINCUBATION); “inactive; negative” under setting [4]; “inactive; negative” (Test System: AMES SALMONELLA TYPHIMURIUM, Strain/Indicator: TA1537, Metabolic Activation: RAT, LIVER, S-9, AROCLOR 1254, Method: PREINCUBATION); “inactive; negative” (Test System: AMES SALMONELLA TYPHIMURIUM, Strain/Indicator: UTH8413, Metabolic Activation: NONE, Method: STANDARD PLATE); “inactive; negative” (Test System: AMES SALMONELLA TYPHIMURIUM, Strain/Indicator: UTH8413, Metabolic Activation: RAT, LIVER, S-9, AROCLOR, Method: STANDARD PLATE). Besides, the mutagenic call reads like this: (Test System: AMES SALMONELLA TYPHIMURIUM, Strain/Indicator: UTH8414, Metabolic Activation: NONE, Method: STANDARD PLATE) “inactive; negative”; (Test System: AMES SALMONELLA TYPHIMURIUM, Strain/Indicator: UTH8414, Metabolic Activation: RAT, LIVER, S-9, AROCLOR, Method: STANDARD PLATE) “inactive; negative”.
As to `Nc1ccc2ccc3ccccc3c2c1`, the mutagenic call (Test System: AMES SALMONELLA TYPHIMURIUM, Strain/Indicator: TA98, Metabolic Activation: RAT, LIVER, S-9, AROCLOR 1254 (2 OR 4%), Method: STANDARD PLATE) is “active; positive”; the mutagenic call (Test System: AMES SALMONELLA TYPHIMURIUM, Strain/Indicator: TA100, Metabolic Activation: RAT, LIVER, S-9, AROCLOR 1254 (2%), Method: STANDARD PLATE) was “active; positive”; the mutagenic call (Test System: AMES SALMONELLA TYPHIMURIUM, Strain/Indicator: TA1535, Metabolic Activation: RAT, LIVER, S-9, AROCLOR 1254 (2%), Method: STANDARD PLATE) is “active; positive”; the mutagenic call (Test System: AMES SALMONELLA TYPHIMURIUM, Strain/Indicator: TA1537, Metabolic Activation: RAT, LIVER, S-9, AROCLOR 1254 (2%), Method: STANDARD PLATE) was “active; positive”.
